Laboratory results: US20040192772A1, “Agent for treating the symptoms of dementia disorders and/or depression” (priority 2001, published 2004)

System: patients suffering from dementia disorders and depression
Test: therapy of patients suffering from dementia disorders and depression
Format: in vivo, human
Conditions: compared with the other local anaesthetics of the anilide group (lidocaine, bupivacaine, butanilicaine, etidocaine, tholycaine, ropivacaine)

## Cc1cccc(C)c1NC(=O)C1CCCCN1C (stereo not shown) [Mepivacaine, mepivacaine]
  effectiveness for the therapy of patients suffering from dementia disorders and depression: most effective
